In publication PMC4884932, “Selective brain penetrable Nurr1 transactivator for treating Parkinson's disease” (Oncotarget, 2016):

Experiments:
[1] = system: tyrosine hydroxylase (TH)-positive DA neurons; experiment: DA neuron survival in primary ventral midbrain (VMB) culture; assay type: cell-based, mouse; conditions: co-treatment with IRX4204
Method: (§1) Ventral midbrain (VMB) from E13.5-14.5 C57BL/6 mouse embryos were dissected, triturated and plated on poly-D-lysine coated 12 well plates or glass coverslips with the serum-free chemically-defined Neurobasal medium, supplemented with 2% B27, 0.5mM L-glutamine, 50I.U./ml penicillin and 50μg/ml streptomycin (Gibco-BRL). […] For each time point, cells were washed once with phosphate buffered saline and fixed with 4% paraformaldehyde for TH immunofluorescent staining. For cell counting, 10 frames were randomly captured from each well using a Leica fluorescent microscope and a minimum of four replicates for each dose and each time point were analyzed for each experiment.

primary VMB neurons = experiment: Nurr1 downstream gene expression in VMB neurons (real time PCR); assay type: cell-based, mouse; conditions: HX531 100nM with 1nM IRX4204
Method: as §1
Total RNA from VMB neurons or rat substantia nigra were isolated using the RNeasy Mini Kit from Qiagen (Valencia, CA) and 1μg of total RNA was reverse transcribed using SuperScript III first-strand synthesis supermix for qRT-PCR from Invitrogen (Carlsbad, CA) according to the manufacturer's instruction. Quantitative RT-PCR was performed using Maxima SYBR Green master mix (Fermentas) in ABI Prism 7900HT in four replicates with primers amplifying the target genes. Expression level of actin was used as an internal control. Data were normalized using the 2^−ΔΔCt method. Levels of target gene mRNAs were expressed relative to those in vehicle control groups and plotted in GraphPad Prism.

**Q.** What does the source list for `CN1c2ccc([N+](=O)[O-])cc2N=C(c2ccc(C(=O)O)cc2)c2cc3c(cc21)C(C)(C)CCC3(C)C` [HX531, reference compound]?
**A.** effect on IRX4204-promoted survival of TH-positive DA neurons [1]: completely blocked; effect on IRX4204-mediated increased expression of DAT (primary VMB neurons): totally abolished; effect on IRX4204-mediated increased expression of DDC (primary VMB neurons): totally abolished
